Laboratory results taken from patent publication US9345742B2, “Aminostatin derivatives for the treatment of arthrosis” (MERCK PATENT GMBH, priority 2011, dated 2016).
Numbered stars: 1 amine (or outer) side, 2 acyl side, 3 side chain; on linkers, the order of the positions; unused ones are H or OH. Square brackets hold non-standard residues; d marks the D form. Peptide text beside a SMILES is read from it. * marks the point of attachment. X1 = N[C@@H](CC(=O)[*:2])[C@H](Cc1ccccc1)N[*:1]; 1Nal = N[C@@H](Cc1cccc2ccccc12)C(=O)O; Isovaleryl = CC(C)CC(=O)*; Abu = CC[C@H](N)C(=O)O; Boc = CC(C)(C)OC(=O)*

Assays:
[1] = target: cathepsin D isolated from the human liver (Homo sapiens (Human), UniProt P07339); assay: In-vitro fluorescence assay for identification of cathepsin D inhibitors; type: biochemical; conditions: cathepsin D 1.4 nM, pH 5.5; read-out: CatD assay IC50-
Procedure: In order to identify modulators of cathepsin D activity, a continuous enzymatic test was carried out with a synthetic peptide which carries a fluorescent group (MCA=(7-methoxycoumarin-4-yl)acetyl) which is quenched by energy transfer from a Dpn (2,4 dinitrophenyl) group on the same molecule, in Greiner 384-well nb microtitre plates. Cleavage of the peptidic substrate by cathepsin D causes an increase in the fluorescence intensity. In order to determine the efficacy of substances, the time-dependent increase in the fluorescence intensity in the presence of the substance was compared with the time-dependent increase in fluorescence in the absence of substances. The reference substance used was pepstatin A (Sigma-Aldrich). The substrate used was […](Dnp)d-R—NH2 (Enzo Life Sciences, Lörrach). The enzyme employed was cathepsin D isolated from the human liver (Sigma-Aldrich) in a final concentration of 1.4 nM. The test was carried out in 100 mM sodium acetate buffer, 1.25% (v/v) of DMSO, 0.25% (w/v) of Chaps, pH 5.5. 2 μl of each substance solution with serially diluted substance concentration were added to in each case 4 μl of cathepsin D solution and incubated at room temperature for 10 min. The reaction was started by addition of 2 μl of substrate solution (final concentration 5 μM). After carrying out a starting-point fluorescence measurement (excitation wavelength 340 nm/emission wavelength 450 nm) using an Envision multilabel reader (Perkin Elmer), the reaction was incubated at room temperature for 60 min. The amount of peptide fragment cleaved off during the reaction time was subsequently measured by determination of the increase in the fluorescence intensity at 450 nm (excitation wavelength 340 nm).

recombinant human renin = recombinant human renin (Homo sapiens (Human), UniProt P00797); assay: In-vitro fluorescence assay for identification of renin-inhibitory activity; type: biochemical; conditions: recombinant human renin 10 nM, pH 7.2; read-out: Renin selectivity IC50
Procedure: In order to identify modulators of renin activity, a continuous enzymatic test was carried out with a synthetic peptide which carries a fluorescent group Edans (=(5-(aminoethyl)aminonaphthalenesulfonate) which is quenched by energy transfer from a Dabcyl (4′-dimethylaminoazobenzene-4-carboxylate) group on the same molecule, in Greiner 384-well microtitre plates. Cleavage of the peptidic substrate by renin causes an increase in the fluorescence intensity. In order to determine the efficacy of substances, the time-dependent increase in the fluorescence intensity in the presence of the substance was compared with the time-dependent increase in fluorescence in the absence of substances. The reference substance used was renin inhibitor 2 (Z-Arg-Arg-Pro-Phe-His-Sta-Ile-His N-Boc-Lys methyl ester Z) (Sigma-Aldrich). The substrate used was renin FRET substrate I (DABCYL-g-Abu-[…]EDANS) (Anaspec, Fremont Calif.). The enzyme employed was recombinant human renin (Proteos, Kalamazoo, Mich.) in a final concentration of 10 nM. The test was carried out in 50 mM Mops buffer, 1.5% (v/v) of DMSO, 0.1% (w/v) of Igepal®, pH 7.2, 0.5% (w/v) of BSA. 2 μl of each substance solution with serially diluted substance concentration were added to in each case 4 μl of renin solution and incubated at room temperature for 15 min. The reaction was started by addition of 4 μl of substrate solution (final concentration 5 μM). After carrying out a starting-point fluorescence measurement (excitation wavelength 340 nm/emission wavelength 495 nm) using an Envision multilabel reader (Perkin Elmer), the reaction was incubated at 37° C. for 60 min. The amount of peptide fragment cleaved off during the reaction time was subsequently measured by determination of the increase in the fluorescence intensity at 495 nm (excitation wavelength 340 nm).

Sequence of cathepsin D isolated from the human liver (P07339 65-161): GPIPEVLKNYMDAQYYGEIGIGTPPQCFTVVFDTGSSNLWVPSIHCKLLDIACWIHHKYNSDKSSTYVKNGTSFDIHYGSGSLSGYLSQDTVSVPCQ
Sequence of cathepsin D isolated from the human liver (P07339 169-412): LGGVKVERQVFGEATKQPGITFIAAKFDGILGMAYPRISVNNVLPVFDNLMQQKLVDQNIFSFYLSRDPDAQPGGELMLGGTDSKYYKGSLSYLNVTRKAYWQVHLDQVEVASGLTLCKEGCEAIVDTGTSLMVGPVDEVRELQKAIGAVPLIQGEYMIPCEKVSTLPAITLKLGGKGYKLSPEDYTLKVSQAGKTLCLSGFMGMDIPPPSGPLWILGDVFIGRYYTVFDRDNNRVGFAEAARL
Sequence of recombinant human renin (P00797 67-406): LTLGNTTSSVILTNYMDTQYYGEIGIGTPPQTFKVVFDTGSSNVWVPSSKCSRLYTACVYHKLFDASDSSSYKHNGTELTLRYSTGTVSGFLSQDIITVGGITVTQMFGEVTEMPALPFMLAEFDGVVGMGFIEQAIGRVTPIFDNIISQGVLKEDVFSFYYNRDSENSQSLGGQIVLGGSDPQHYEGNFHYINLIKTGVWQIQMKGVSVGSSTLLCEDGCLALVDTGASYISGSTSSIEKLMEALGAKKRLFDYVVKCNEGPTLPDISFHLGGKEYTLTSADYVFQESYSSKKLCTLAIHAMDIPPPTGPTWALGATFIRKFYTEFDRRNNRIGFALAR

Row | Compound | IC50 [1] [nM] | IC50 (recombinant human renin) [nM]
1 | CC[C@H](C)[C@H](NC(=O)C[C@H](N)[C@H](Cc1ccccc1)NC(=O)[C@@H](NC(=O)[C@H](CC(C)C)NC(=O)CC(C)C)C(C)C)C(=O)N[C@H](CO)C(C)C [Compound 34, N-[(1S,2S)-1-((S)-1-Hydroxymethyl-2-methylpropylcarbamoyl)-2-methylbutyl]-(S)-3-(S)-amino-4-{(S)-3-methyl-2-[(S)-4-methyl-2-(3-methylbutyrylamino)pentanoyl-amino]butyrylamino}-5-phenylpentanamide] | 6.2 | –
2 | COC(=O)[C@@H](NC(=O)[C@H](Cc1cccc2ccccc12)NC(=O)C[C@H](N)[C@H](Cc1ccccc1)NC(=O)[C@@H](NC(=O)[C@H](CC(C)C)NC(=O)CC(C)C)C(C)C)C(C)C [Compound 28, Methyl (S)-2-[(S)-2-((3S,4S)-3-amino-4-{(S)-3-methyl-2-[(S)-4-methyl-2-(3-methyl-butyrylamino)pentanoylamino]butyryl-amino}-5-phenylpentanoylamino)-3-naphthalen-1-ylpropionylamino]-3-methylbutyrate] (Isovaleryl-LV[X1][1Nal]V-OMe) | 3.7 | > 30000
3 | CC[C@H](NC(=O)[C@H](CC(C)C)NC(=O)CC(C)C)C(=O)N[C@@H](Cc1ccccc1)[C@@H](N)CC(=O)N[C@H](C(=O)N[C@H](C(=O)OC)C(C)C)[C@@H](C)CC [Compound 4, Methyl (S)-2-[(2S,3S)-2-((3S,4S)-3-amino-4-{(S)-2-[(S)-4-methyl-2-(3-methylbutyrylamino)pentanoylamino]-1-oxobutylamino}-5-phenylpentanoylamino)-3-methyl-pentanoylamino]-3-methylbutyrate] (Isovaleryl-L[Abu][X1]IV-OMe) | 97 | –
4 | CC(C)CC(=O)N[C@@H](CC(C)C)C(=O)N[C@H](C(=O)N[C@@H](Cc1ccccc1)[C@@H](N)CC(=O)N[C@H](COc1ccc(F)cc1F)C(C)C)C(C)C [Compound 44, N-[(S)-1-(2,4-Difluorophenoxymethyl)-2-methylpropyl]-(3S,4S)-3-amino-4-{(S)-3-methyl-2-[(S)-4-methyl-2-(3-methylbutyryl-amino)pentanoylamino]butyrylamino}-5-phenylpentanamide] | 39 | > 30000
5 | CC[C@H](C)[C@H](NC(=O)C[C@H](N)[C@H](Cc1ccccc1)NC(=O)[C@@H](NC(=O)[C@H](Cc1ccccc1)NC(=O)OC(C)(C)C)C(C)C)C(=O)N[C@H](C(=O)OC)C(C)C [Compound 20, Methyl (S)-2-((2S,3S)-2-{(3S,4S)-3-amino-4-[(S)-2-((S)-2-tert-butoxycarbonylamino-3-phenylpropionylamino)-3-methylbutyrylamino]-5-phenylpentanoylamino}-3-methyl-pentanoylamino)-3-methylbutyrate] (Boc-FV[X1]IV-OMe) | 1 | –
6 | CC[C@H](C)[C@H](NC(=O)C[C@H](N)[C@H](Cc1ccccc1)NC(=O)[C@@H](NC(=O)[C@H](CC(C)C)NC(=O)CC(C)C)C(C)C)C(=O)N[C@H](C(=O)OC)[C@@H](C)CC [Compound 13, Methyl (2S,3S)-2-[(S)-2-((S)-3-(S)-amino-4-{(S)-3-methyl-2-[(S)-4-methyl-2-(3-methyl-butyrylamino)pentanoylamino]butyryl-amino}-5-phenylpentanoylamino)-3-methyl-1-(S)-oxopentylamino]-3-methylpentanoate] (Isovaleryl-LV[X1]II-OMe) | 47 | –
7 | CC[C@H](C)[C@H](NC(=O)C[C@H](N)[C@H](Cc1ccccc1)NC(=O)[C@H](CC(C)C)NC(=O)CC(C)C)C(=O)N[C@H](C(=O)OC)C(C)C [Compound 3, Methyl (S)-2-((2S,3S)-2-{(3S,4S)-3-amino-4-[(S)-4-methyl-2-(3-methylbutyrylamino)pentanoylamino]-5-phenylpentanoylamino}-3-methylpentanoylamino)-3-methyl-butyrate] | 5500 | –
8 | CC[C@H](C)[C@H](NC(=O)C[C@H](N)[C@H](Cc1ccccc1)NC(=O)[C@@H](NC(=O)COc1ccc(Cl)cc1Cl)C(C)C)C(=O)N[C@H](C(=O)OC)C(C)C [Compound 22, Methyl (S)-2-[(2S,3S)-2-((3S,4S)-3-amino-4-{(S)-2-[2-(2,4-dichlorophenoxy)acetylamino]-3-methylbutyrylamino)-5-phenyl-pentanoylamino)-3-methylpentanoyl-amino]-3-methylbutyrate] | 27 | –
9 | CC[C@H](C)[C@H](NC(=O)C[C@H](N)[C@H](Cc1ccccc1)NC(=O)[C@@H](NC(=O)[C@H](CC(C)C)NC(=O)CC(C)C)C(C)C)C(=O)N[C@H](C(=O)OC)C(C)C [Compound 10, Methyl (S)-2-[(2S,3S)-2-((3S,4S)-3-amino-4-{(S)-3-methyl-2-[(S)-4-methyl-2-(3-methyl-butyrylamino)pentanoylamino]-1-oxobutylamino}-5-phenylpentanoylamino)-3-methylpentanoylamino]-3-methyl-butyrate] (Isovaleryl-LV[X1]IV-OMe) | 5.1 | –
10 | CC[C@H](C)[C@H](NC(=O)C[C@H](N)[C@H](Cc1ccccc1)NC(=O)[C@@H](NC(=O)[C@H](CC(C)C)NC(=O)OC(C)(C)C)C(C)C)C(=O)N[C@H](C(=O)OC)C(C)C [Compound 16, Methyl (S)-2-((2S,3S)-2-{(3S,4S)-3-amino-4-[(S)-2-((S)-2-tert-butoxycarbonylamino-4-methylpentanoylamino)-3-methylbutyrylamino]-5-phenylpentanoylamino}-3-methyl-pentanoylamino)-3-methylbutyrate] (Boc-LV[X1]IV-OMe) | 36 | –

Now from value to compound:

Row | IC50 [1] [nM] | IC50 (recombinant human renin) [nM] | Compound
11 | 18 | > 30000 | CC[C@H](C)[C@H](NC(=O)C[C@H](N)[C@H](Cc1ccccc1)NC(=O)[C@@H](NC(=O)Cc1cccc(OC(F)(F)F)c1)C(C)C)C(=O)N[C@H](C(=O)OC)C(C)C [Compound 7, Methyl (S)-2-[(2S,3S)-2-((3S,4S)-3-amino-4-{(S)-3-methyl-2-[2-(3-trifluoromethoxy-phenyl)acetylamino]butyrylamino}-5-phenylpentanoylamino)-3-methyl-pentanoylamino]-3-methylbutyrate]
12 | 2000 | > 30000 | CC[C@H](NC(=O)[C@@H](N)CC(C)C)C(=O)N[C@@H](Cc1ccccc1)[C@@H](N)CC(=O)N[C@H](C(=O)N[C@H](C(=O)OC)C(C)C)[C@@H](C)CC [Compound 2, Methyl (S)-2-((2S,3S)-2-{(3S,4S)-3-amino-4-[(S)-2-((S)-2-amino-4-methylpentanoylamino)butyrylamino]-5-phenylpentanoylamino}-3-methylpentanoylamino)-3-methyl-butyrate] (H-L[Abu][X1]IV-OMe)
13 | 3.6 | – | CC[C@H](C)[C@H](NC(=O)C[C@H](N)[C@H](Cc1ccccc1)NC(=O)[C@@H](NC(=O)[C@H](Cc1ccccc1)NC(=O)CC(C)C)C(C)C)C(=O)N[C@H](CO)C(C)C [Compound 42, N-[(1S,2S)-1-((S)-1-Hydroxymethyl-2-methylpropylcarbamoyl)-2-methylbutyl]-(S)-3-(S)-amino-4-{(S)-3-methyl-2-[(S)-2-(3-methylbutyrylamino)-3-phenylpropionylamino]butyrylamino}-5-phenylpentanamide]
14 | 81 | – | CC[C@H](C)[C@H](NC(=O)C[C@H](N)[C@H](Cc1ccccc1)NC(=O)[C@@H](NC(=O)[C@@H](N)Cc1ccccc1)C(C)C)C(=O)N[C@H](C(=O)OC)C(C)C [Compound 21, Methyl (S)-2-((2S,3S)-2-{(3S,4S)-3-amino-4-[(S)-2-((S)-2-amino-3-phenylpropionylamino)-3-methylbutyrylamino]-5-phenyl-pentanoylamino)-3-methylpentanoyl-amino)-3-methylbutyrate] (H-FV[X1]IV-OMe)
